# From PMC6264117, “Label-Free Time-Gated Luminescent Detection Method for the Nucleotides with Varying Phosphate Content” (Sensors (Basel, Switzerland), 2018)
# Molecular target: T1, K-Ras (Homo sapiens, UniProt P01116)
# T1 construct: gene KRAS; res; 2-188; with SOS^cat (res. 564-1049); p120GAP (res. 714-1047) in the cycling assay
# Assay: Label-free Tb(III) luminescence GTPase cycling assay (Probe […]); confirmed by QRET and by SOS^cat nucleotide exchange assays (IC50 […])
# Assay type: biochemical
# T1 sequence (Q07889 564-1049): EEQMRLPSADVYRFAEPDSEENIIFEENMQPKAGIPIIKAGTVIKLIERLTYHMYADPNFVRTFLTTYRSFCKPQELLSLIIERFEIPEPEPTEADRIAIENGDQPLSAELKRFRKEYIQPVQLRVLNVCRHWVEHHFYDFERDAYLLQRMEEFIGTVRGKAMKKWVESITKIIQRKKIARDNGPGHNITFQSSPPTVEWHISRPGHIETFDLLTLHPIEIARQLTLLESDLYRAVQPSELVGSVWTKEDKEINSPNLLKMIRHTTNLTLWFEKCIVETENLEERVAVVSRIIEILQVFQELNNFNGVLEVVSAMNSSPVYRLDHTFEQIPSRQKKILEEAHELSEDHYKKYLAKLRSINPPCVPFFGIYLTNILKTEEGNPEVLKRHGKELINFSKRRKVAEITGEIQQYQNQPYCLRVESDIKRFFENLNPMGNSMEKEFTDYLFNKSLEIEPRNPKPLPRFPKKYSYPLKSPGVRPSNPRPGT
# T1 sequence (P20936 714-1047, further chain): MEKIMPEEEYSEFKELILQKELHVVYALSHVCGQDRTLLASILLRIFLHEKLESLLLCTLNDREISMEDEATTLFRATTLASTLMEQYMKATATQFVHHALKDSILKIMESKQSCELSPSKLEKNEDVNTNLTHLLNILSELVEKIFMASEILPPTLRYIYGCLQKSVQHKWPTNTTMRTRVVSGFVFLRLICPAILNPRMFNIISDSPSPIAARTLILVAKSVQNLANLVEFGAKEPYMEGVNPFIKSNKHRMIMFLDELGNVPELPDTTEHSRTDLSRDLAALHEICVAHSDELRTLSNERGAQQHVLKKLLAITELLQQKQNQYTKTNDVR
# T1 sequence (P01116 2-188): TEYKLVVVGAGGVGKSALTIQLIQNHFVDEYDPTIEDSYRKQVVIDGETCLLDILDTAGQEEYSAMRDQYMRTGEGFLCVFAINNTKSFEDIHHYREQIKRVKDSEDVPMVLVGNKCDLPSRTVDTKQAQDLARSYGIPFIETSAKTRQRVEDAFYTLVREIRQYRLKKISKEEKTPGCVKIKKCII
compound,measurement,value
"Cc1[nH]c2cc(Cl)cc(Cl)c2c1CCN [DCAI, 2-(4,6-dichloro-2-methyl-1h-indol-3-yl)ethanamine]",IC50,158 ± 13 µM
